In patent US20250346600A1, “TRICYCLIC DERIVATIVES AND RELATED USES” (MOMA Therapeutics, Inc., priority 2023, published 2025):
Like-named read-outs stand apart in the source and are kept apart here.

How the values were obtained:
[1] = target: T1, Full length WRN protein (aa 2-1432) (Homo sapiens (Human), UniProt Q14191); test: WRN ATPase ADP-Glo biochemical assay, Assay Format A (10 μM ATP); conditions: 0.25 nM WRN, 100 nM C6.18 ssDNA, 30 min preincubation, read-out: ATPase ADPGlo AC50 (uM)- Assay Format A
How it was run: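 Sf9-expressed FLAG-AVI-TEV-tagged WRN (0.5 nM) preincubated 30 min with compound (11-point 3-fold dilution). Reaction started with 200 nM C6.18 39-mer ssDNA and 20 μM ATP (addition concentrations), run 30 min at room temperature. ADP measured by ADP-Glo luminescence; IC50 from four-parameter fit, geometric mean of ≥2 runs.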

[2] = target: T1, Full length WRN protein (aa 2-1432); test: WRN ATPase ADP-Glo biochemical assay, Assay Format B (100 μM ATP); conditions: 0.25 nM WRN, 100 nM C6.18 ssDNA, 60 min preincubation, read-out: ATPase ADPGlo AC50 (uM)- Assay Format B
HCT116 cells = test: HCT116 (MSI) 7 day viability, CellTiter Glo; type: cell-based; conditions: 7 days, read-out: HCT116 (MSI) Viability 7 Day Abs AC50
How it was run: (§1)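 Seven-day viability is assessed with CellTiter Glo after compounds, diluted in ten 3-fold steps in DMSO, are exposed to HCT116 (50 cells/well) or HT29 (500 cells/well). Reported IC50 is the geometric mean of at least two independent runs.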

HT29 cells = test: HT29 (MSS) 7 day viability, CellTiter Glo; type: cell-based; conditions: 7 days, read-out: HT29 (MSS) Viability 7 Day CTGAbs AC50
How it was run: as §1

T1 sequence (Q14191 2-1432): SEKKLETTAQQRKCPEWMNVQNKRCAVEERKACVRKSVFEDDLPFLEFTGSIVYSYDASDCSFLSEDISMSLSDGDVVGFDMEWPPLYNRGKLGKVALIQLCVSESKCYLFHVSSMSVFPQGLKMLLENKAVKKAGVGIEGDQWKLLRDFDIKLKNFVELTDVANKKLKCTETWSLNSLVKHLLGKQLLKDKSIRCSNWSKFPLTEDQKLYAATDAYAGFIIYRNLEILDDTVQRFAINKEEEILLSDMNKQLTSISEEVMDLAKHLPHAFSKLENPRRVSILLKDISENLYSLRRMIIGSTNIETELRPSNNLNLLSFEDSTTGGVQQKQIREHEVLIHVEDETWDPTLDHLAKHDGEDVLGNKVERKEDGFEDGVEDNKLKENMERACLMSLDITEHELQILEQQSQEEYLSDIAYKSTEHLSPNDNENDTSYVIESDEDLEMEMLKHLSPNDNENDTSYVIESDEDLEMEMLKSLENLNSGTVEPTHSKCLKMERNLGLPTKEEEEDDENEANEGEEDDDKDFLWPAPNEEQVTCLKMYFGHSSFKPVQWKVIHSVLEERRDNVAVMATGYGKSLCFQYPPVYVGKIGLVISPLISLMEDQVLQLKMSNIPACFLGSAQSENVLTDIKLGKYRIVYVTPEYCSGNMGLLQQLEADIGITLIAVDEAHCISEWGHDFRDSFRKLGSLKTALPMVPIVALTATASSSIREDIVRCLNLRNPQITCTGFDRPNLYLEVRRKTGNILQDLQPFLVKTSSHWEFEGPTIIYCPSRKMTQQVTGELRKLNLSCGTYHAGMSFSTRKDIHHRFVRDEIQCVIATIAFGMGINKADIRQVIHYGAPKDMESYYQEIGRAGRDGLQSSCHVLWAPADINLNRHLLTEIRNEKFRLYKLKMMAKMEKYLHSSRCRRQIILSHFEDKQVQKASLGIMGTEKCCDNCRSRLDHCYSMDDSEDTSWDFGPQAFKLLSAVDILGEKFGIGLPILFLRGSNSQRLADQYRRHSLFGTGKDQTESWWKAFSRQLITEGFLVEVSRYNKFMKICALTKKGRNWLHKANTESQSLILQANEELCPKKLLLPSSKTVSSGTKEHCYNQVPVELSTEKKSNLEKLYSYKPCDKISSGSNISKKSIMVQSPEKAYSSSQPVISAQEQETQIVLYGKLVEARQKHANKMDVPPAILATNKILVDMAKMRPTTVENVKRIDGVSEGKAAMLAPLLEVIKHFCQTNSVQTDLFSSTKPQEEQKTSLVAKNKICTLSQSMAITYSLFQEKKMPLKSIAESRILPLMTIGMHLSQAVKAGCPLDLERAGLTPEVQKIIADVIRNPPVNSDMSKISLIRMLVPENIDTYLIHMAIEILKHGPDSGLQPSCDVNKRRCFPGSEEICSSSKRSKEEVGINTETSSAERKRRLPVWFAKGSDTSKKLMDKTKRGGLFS

| Compound | AC50 [1] [µM] | AC50 [2] [µM] | AC50 (HCT116 cells; Homo sapiens, HCT-116, 168 h) [nM] | AC50 (HT29 cells; Homo sapiens, HT-29, 168 h) [nM] | AC50 (HCT116 cells) [nM] | AC50 (HT29 cells) [nM] |
| --- | --- | --- | --- | --- | --- | --- |
| C=CC(=O)N1CCc2nn(-c3ccc(C4CCC4)cc3O)c3c2C(C1)N(C(=O)c1ccc(C(F)(F)F)nc1)CC3 (stereo not drawn) [Compound 96, 1-(2-(4-cyclobutyl-2-hydroxyphenyl)-5-(6-(trifluoromethyl)nicotinoyl)-2,3,4,5,5a,6,8,9-octahydro-7H-1,2,5,7-tetraazabenzo[cd]azulen-7-yl)prop-2-en-1-one] | < 0.0015 | 0.005 to 0.015 | 1 to 100 | > 3000 | – | – |
| C=CC(=O)N1CCc2nn(-c3ccc(C4CC4)cc3)c3c2C(C1)N(C(=O)c1ccc(Cl)nc1N)CC3 (stereo not drawn) [Compound 167, 1-(5-(2-amino-6-chloronicotinoyl)-2-(4-cyclopropylphenyl)-2,3,4,5,5a,6,8,9-octahydro-7H-1,2,5,7-tetraazabenzo[cd]azulen-7-yl)prop-2-en-1-one] | < 0.0015 | 0.015 to 0.055 | 1 to 100 | > 3000 | – | – |
| C=CC(=O)N1CCc2nn(-c3ccc(C4CC4)cc3O)c3c2C(C1)N(C(=O)c1ccc(Br)c2[nH]c(C(F)F)nc12)CC3 (stereo not drawn) [Compound 143, 1-(5-(7-bromo-2-(difluoromethyl)-1H-benzo[d]imidazole-4-carbonyl)-2-(4-cyclopropyl-2-hydroxyphenyl)-2,3,4,5,5a,6,8,9-octahydro-7H-1,2,5,7-tetraazabenzo[cd]azulen-7-yl)prop-2-en-1-one] | < 0.0015 | 0.005 to 0.015 | 1 to 100 | > 3000 | – | – |
| C=CC(=O)N1CC(F)Oc2nn(-c3ccc(C(C)C)cc3)c3c2C(C1)N(C(=O)c1ccc(Br)c2[nH]cnc12)CC3 (stereo not drawn) [Compound 55, 1-(5-(7-bromo-1H-benzo[d]imidazole-4-carbonyl)-9-fluoro-2-(4-isopropylphenyl)-2,3,4,5,5a,6,8,9-octahydro-7H-10-oxa-1,2,5,7-tetraazacycloocta[cd]inden-7-yl)prop-2-en-1-one] | < 0.0015 | 0.015 to 0.055 | – | – | 100 to 250 | > 3000 |
| C=CC(=O)N1CCc2nn(-c3ccc(C45CC(C4)C5)cc3)c3c2C(C1)N(C(=O)c1ccc(Br)c2[nH]cnc12)CC3 (stereo not drawn) [Compound 4, 1-(2-(4-(bicyclo[1.1.1]pentan-1-yl)phenyl)-5-(7-bromo-1H-benzo[d]imidazole-4-carbonyl)-2,3,4,5,5a,6,8,9-octahydro-7H-1,2,5,7-tetraazabenzo[cd]azulen-7-yl)prop-2-en-1-one] | < 0.0015 | 0.015 to 0.055 | 1 to 100 | > 3000 | – | – |
| C=CC(=O)N1CCc2nn(-c3ccc(C4CCC4)cc3O)c3c2C(C1)N(C(=O)c1cnc(C(F)(F)F)c(O)c1)CC3 (stereo not drawn) [Compound 25, 1-(2-(4-cyclobutyl-2-hydroxyphenyl)-5-(5-hydroxy-6-(trifluoromethyl)nicotinoyl)-2,3,4,5,5a,6,8,9-octahydro-7H-1,2,5,7-tetraazabenzo[cd]azulen-7-yl)prop-2-en-1-one] | < 0.0015 | 0.005 to 0.015 | 1 to 100 | > 3000 | – | – |
| C=CC(=O)N1CCOc2nn(-c3ccc(C(C)C)cc3O)c3c2C(C1)N(C(=O)c1ccc(Br)c2[nH]cnc12)CC3 (stereo not drawn) [Compound 44, 1-(5-(7-bromo-1H-benzo[d]imidazole-4-carbonyl)-2-(2-hydroxy-4-isopropylphenyl)-2,3,4,5,5a,6,8,9-octahydro-7H-10-oxa-1,2,5,7-tetraazacycloocta[cd]inden-7-yl)prop-2-en-1-one] | < 0.0015 | 0.005 to 0.015 | 1 to 100 | > 3000 | – | – |
| C=CC(=O)N1CC(C)c2nn(-c3ccc(C(C)C)cc3O)c3c2C(C1)N(C(=O)c1ccc(Br)c2[nH]cnc12)CC3 (stereo not drawn) [Compound 32, 1-(5-(7-bromo-1H-benzo[d]imidazole-4-carbonyl)-2-(2-hydroxy-4-isopropylphenyl)-9-methyl-2,3,4,5,5a,6,8,9-octahydro-7H-1,2,5,7-tetraazabenzo[cd]azulen-7-yl)prop-2-en-1-one] | < 0.0015 | 0.005 to 0.015 | – | – | 1 to 100 | > 3000 |
| C=CC(=O)N1CCc2nn(-c3ccc(C(C)C)cc3)c3c2C(C1)N(C(=O)c1ccc(Br)c2ncn(CCOC)c12)CC3 (stereo not drawn) [Compound 73, 1-(5-(4-bromo-1-(2-methoxyethyl)-1H-benzo[d]imidazole-7-carbonyl)-2-(4-isopropylphenyl)-2,3,4,5,5a,6,8,9-octahydro-7H-1,2,5,7-tetraazabenzo[cd]azulen-7-yl)prop-2-en-1-one] | 0.0015 to 0.005 | 0.015 to 0.055 | 100 to 250 | > 3000 | – | – |
| C=CC(=O)N1CCc2nn(-c3ccc(C(C)C)cc3)c3c2C(C1)N(C(=O)c1cnc(C(F)(F)F)c(OCC(N)=O)c1)CC3 (stereo not drawn) [Compound 59, 2-((5-(7-acryloyl-2-(4-isopropylphenyl)-3,4,5,5a,6,7,8,9-octahydro-2H-1,2,5,7-tetraazabenzo[cd]azulene-5-carbonyl)-2-(trifluoromethyl)pyridin-3-yl)oxy)acetamide] | 0.0015 to 0.005 | 0.015 to 0.055 | 100 to 250 | > 3000 | – | – |
| C=CC(=O)N1CCOc2nn(-c3ccc(C(C)C)cc3O)c3c2C(C1)N(C(=O)c1cnc(C(F)(F)F)c(O)c1)CC3 (stereo not drawn) [Compound 45, 1-(2-(2-hydroxy-4-isopropylphenyl)-5-(5-hydroxy-6-(trifluoromethyl)nicotinoyl)-2,3,4,5,5a,6,8,9-octahydro-7H-10-oxa-1,2,5,7-tetraazacycloocta[cd]inden-7-yl)prop-2-en-1-one] | 0.0015 to 0.005 | 0.015 to 0.055 | > 1000 | > 3000 | – | – |
| C=CC(=O)N1CCc2nn(-c3ccc(C4CC4)cc3O)c3c2C(C1)N(C(=O)c1cnc(OC(F)(F)F)c(F)c1N)CC3 (stereo not drawn) [Compound 247, 1-(5-(4-amino-5-fluoro-6-(trifluoromethoxy)nicotinoyl)-2-(4-cyclopropyl-2-hydroxyphenyl)-2,3,4,5,5a,6,8,9-octahydro-7H-1,2,5,7-tetraazabenzo[cd]azulen-7-yl)prop-2-en-1-one] | 0.0015 to 0.005 | 0.005 to 0.015 | 1 to 100 | > 3000 | – | – |
| C=CC(=O)N1CCc2nn(-c3ccc(C4CC4)cc3)c3c2C(C1)N(C(=O)c1cnc2c(C)nn(C)c2c1)CC3 (stereo not drawn) [Compound 110, 1-(2-(4-cyclopropylphenyl)-5-(1,3-dimethyl-1H-pyrazolo[4,3-b]pyridine-6-carbonyl)-2,3,4,5,5a,6,8,9-octahydro-7H-1,2,5,7-tetraazabenzo[cd]azulen-7-yl)prop-2-en-1-one] | 0.005 to 0.015 | > 0.055 | 100 to 250 | > 3000 | – | – |
| C=CC(=O)N1CCc2nn(-c3ccc(C4CCC4)cc3O)c3c2C(C1)N(C(=O)c1cnc(C(F)(F)F)cc1O)CC3 (stereo not drawn) [Compound 149, 1-(2-(4-cyclobutyl-2-hydroxyphenyl)-5-(4-hydroxy-6-(trifluoromethyl)nicotinoyl)-2,3,4,5,5a,6,8,9-octahydro-7H-1,2,5,7-tetraazabenzo[cd]azulen-7-yl)prop-2-en-1-one] | < 0.0015 | 0.005 to 0.015 | 250 to 500 | > 3000 | – | – |
| C=CC(=O)N1CCc2nn(-c3ccc(C4CC4)cc3)c3c2C(C1)N(C(=O)c1ccc(Br)c2[nH]nc(N)c12)CC3 (stereo not drawn) [Compound 131, 1-(5-(3-amino-7-bromo-1H-indazole-4-carbonyl)-2-(4-cyclopropylphenyl)-2,3,4,5,5a,6,8,9-octahydro-7H-1,2,5,7-tetraazabenzo[cd]azulen-7-yl)prop-2-en-1-one] | < 0.0015 | 0.005 to 0.015 | 1 to 100 | > 3000 | – | – |
| C=CC(=O)N1CCc2nn(-c3ccc(C4CCC4)cc3O)c3c2C(C1)N(C(=O)c1cnc(C(F)(F)F)cc1N)CC3 (stereo not drawn) [Compound 138, 1-(5-(4-amino-6-(trifluoromethyl)nicotinoyl)-2-(4-cyclobutyl-2-hydroxyphenyl)-2,3,4,5,5a,6,8,9-octahydro-7H-1,2,5,7-tetraazabenzo[cd]azulen-7-yl)prop-2-en-1-one] | < 0.0015 | 0.005 to 0.015 | 1 to 100 | > 3000 | – | – |
| C=CC(=O)N1CCOc2nn(-c3ccc(C4CC4)cc3)c3c2C(C1)N(C(=O)c1ccc(C(F)(F)F)c2[nH]ncc12)CC3 (stereo not drawn) [Compound 50, 1-(2-(4-cyclopropylphenyl)-5-(7-(trifluoromethyl)-1H-indazole-4-carbonyl)-2,3,4,5,5a,6,8,9-octahydro-7H-10-oxa-1,2,5,7-tetraazacycloocta[cd]inden-7-yl)prop-2-en-1-one] | 0.0015 to 0.005 | 0.015 to 0.055 | 100 to 250 | > 3000 | – | – |
| C=CC(=O)N1CC(O)c2nn(-c3ccc(C4CCC4)cc3)c3c2C(C1)N(C(=O)c1ccc(Br)c2[nH]c(C(F)F)nc12)CC3 (stereo not drawn) [Compound 160, 1-(5-(7-bromo-2-(difluoromethyl)-1H-benzo[d]imidazole-4-carbonyl)-2-(4-cyclobutylphenyl)-9-hydroxy-2,3,4,5,5a,6,8,9-octahydro-7H-1,2,5,7-tetraazabenzo[cd]azulen-7-yl)prop-2-en-1-one] | < 0.0015 | 0.0015 to 0.005 | 1 to 100 | > 3000 | – | – |
